Like-named read-outs stand apart in the source and are kept apart here.

In data set [1] the test system is bone resorption in the TPTX rats. Particulars: TPTX rat; for decrease in blood levels of Ca2+ (FIG. 2): 0.01-5 mgP/kg. As for the experimental part: Female Spraque-Dawley rats from Molegaards Breeding Centre, Skensved, Denmark were used in the experiments. The animals were kept three by three in Macrolon cages, with free access to standard rat food pellets and tap water during the whole experiment. TPTX (Thyroparathyroidectomy) was preformed during anaesthesia with xylazine (Rompun®, 20 mg/ml, 0.25 ml/kg, intraperitoneally (i.p.)) and ketamine (Ketalar®, 50 mg/ml, 2.0 ml/kg, i.p.). After TPTX all rats were supplemented with 4 μg/kg thyroxin subcutaneously three times a week. TPTX adequacy was checked by determination of blood levels of Ca^2+ in a blood samples obtained from the vein of the tail 5-6 days after surgery. TPTX was considered successful if blood Ca^2+ was ≦80% of the concentration found in the rats before surgery.
Bone resorption in the TPTX rats was stimulated by the arotinoid ethyl p-[(E)-2-(5,6,7,8-tetrahydro-5,5,8,8-tetramethyl-2-naphtyl)penyl]-benzoate (RO 13-6298, a gift from Hoffman-La Roche AG, Basel, Switzerland). RO 13-6298 was administered subcutaneously once daily (100 μg/kg in 1 ml/kg solved in polyethylene glycol 300 containing 10% ethanol) for three consecutive days (days 1, 2 and 3), day 1 being five to six days after TPTX.

For data set [2] the following is noted: taken either concurrently with or 2 hours after breakfast; cited from earlier work.

On to `NCCCC(O)(P(=O)(O)O)P(=O)(O)O` [alendronate, 4-amino-1-hydroxybutylidene-1,1-biphosphonic acid], for which, in data set [1] (24 hours after the third oral dose, 1 mgP/kg, dissolved in saline (0.9% NaCl), free access to food), the “decrease of blood levels of Ca2+ compared to rats treated with only saline” value is listed as “no significant decrease”. Also, the “decrease in blood levels of Ca2+ (FIG. 2)” value in data set [1] (saline i.v.) and in data set [1] (saline p.o.) was “dose-dependent decrease” throughout. In data set [2], the impairment of availability is given as above 85%.

The record behind these values is patent US6372728B1, “Formulation for treatment of osteoporosis” (AstraZeneca AB, priority 1997, dated 2002).
